Entries after “also recorded” stand apart in the source; their conditions may differ.
How the values were obtained:
[1] = Reactivity with GSH (LC/MS); type: physicochemical; conditions: 37°C
Excerpt: Because KIM-161 contains α,β-enone moiety, it was investigated for its reactivity with glutathione (GSH), an important cellular component for maintaining the desired redox balance ([Aquilano et al., 2014]).
GSH and solvents were purchased from Sigma-Aldrich. The LC/MS system is composed of an Agilent 1200 HPLC system, a solvent delivery module, a quaternary pump, an autosampler, and a column compartment (Agilent Technology, Germany). The column effluent was connected to an Agilent 6320 Ion Trap-ESI-MS. The column heater was set to 25 ± 2°C. The control of the HPLC system and data processing were performed using ChemStation (Rev. B.01.03 SR2-204) and 6300 Series Trap Control version 6.2 Build No. 62.24 (Bruker Daltonik GmbH). The analytes were separated using an Agilent Zorbax Extend-C18 column (80Å, 150 mm length × 4.6 mm, i.d., 5 μm) and Agilent-Zorbax Extend-C18 pre-column (Agilent Technologies, Palo Alto, CA, USA). The general MS adjustments were set as follows: capillary voltage, 4000 V; nebulizer, 35 psi; drying gas, 12 L/min; desolvation temperature, 350°C; ion charge control smart target, 150,000; and max. accumulation time, 150 ms. The Auto-MSn positive mode was applied. The mobile system was isocratic elution using 55% acetonitrile and 45% water containing 0.1% formic acid (w/v). […]

HL60 cells = assay: Apoptosis detection by caspase-3 activity; type: cell-based, human; conditions: HL60, 1 μM, 48 h
Excerpt: The activated caspase-3 is a marker for cell apoptosis that proteolytically cleaves and activates other caspases and intracellular targets ([Patel et al., 1996]). Caspase-3, which is activated during the early stages of apoptosis, could be measured in HL60 cells undergoing apoptosis by using fluorescein isothiocyanate (FITC)–conjugated active caspase-3 antibody.
FITC conjugated active caspase-3 antibody (BD biosciences, USA) was used to detect the active form of caspase-3 in the cells undergoing apoptosis. Cells were plated in a 6-well culture plate at a density of 0.5 × 10^6 cells and harvested after 24 and 48 h of incubation with the test compound. The collected cells were washed twice with cold 1X PBS and then resuspended in 0.5 ml of BD Cytofix/Cytoperm solution followed by a 20-min incubation on ice. After incubation, the cells were washed twice in a BD Perm/Wash buffer (1X) and were labelled with 5 µL of FITC rabbit anti-caspase-3 antibodies. The labelled cells were washed again with wash buffer and resuspended in 0.5 ml of buffer and analyzed by acquiring a minimum of 5,000 events on the FACSAria III cell analyzer and sorter.

[2] = Binding to mouse plasma proteins (equilibrium dialysis); type: in vitro ADME; conditions: pH 7.4, CD-1 mouse plasma, equilibrium dialysis 22 h, read-out: Mouse plasma protein binding (% free at 37°C)
Description: The equilibrium dialysis method for determining plasma protein binding was performed as previously described using 96-well dialyzer plates with a molecular weight cutoff of 5K (Harvard Apparatus, Holliston, MA) and a dual-plate rotator set to maximum speed (Harvard Apparatus, Holliston, MA) located in a 37°C incubator with a 10% CO2 atmospheric environment. The assays were run in triplicate. KIM-161 was added to CD-1 mouse plasma (Innovative Research, Novi, MI, sodium heparin added as anticoagulant; pH adjusted to 7.4 with 2N HCl on the day of use) in DMSO (final DMSO concentration 0.4%) to give a 10 µM final concentration. The drug/plasma mixture and buffer (Dulbecco's PBS 1X without calcium and magnesium, Mediatech, Inc., Herndon, VA) were placed in their respective sides; the wells were capped; and the plate was placed in the rotator and allowed to dialyze for 22 h. Following dialysis, aliquots of the buffer and plasma mixture were removed and mixed with aliquots of the opposite matrix in 96-well deep plates. The concentrations of the analytes from each side of the dialysis plate were determined by LC/MS/MS on a Waters Xevo TQ instrument as described above using positive electrospray ionization. […] The fraction unbound was calculated by dividing the drug concentration in the buffer side of the dialysis plate by the drug concentration in the plasma side.

[3] = Stability in mouse plasma; type: in vitro ADME; conditions: 1 µM, t1/2; listed as KIM-161
Description: The assay was conducted at 37°C in triplicate. The test compound KIM-161 or procaine (the positive control) was tested at a final concentration of 1 µM in either 2.5% DMSO/CD-1 mouse plasma (Innovative Research, Novi, MI; sodium heparin added as anticoagulant; pH adjusted to 7.4 with 2N HCl on the day of use) or 2.5% DMSO/PBS (pH 7.4; 136.9 mM NaCl, 2.68 mM KCl, 8.1 mM Na2HPO4, 1.47 mM KH2PO4, 0.9 mM CaCl2, and 0.49 mM MgCl2). At seven time points, the reaction mixture aliquots were transferred to 96-shallow-well stop plates on ice containing acetonitrile with 0.1 µM propafenone. Samples were analyzed by LC/MS/MS on a Waters Xevo TQ instrument as described above using positive electrospray ionization. The assay acceptance criterion was 20% for all standards and 25% for the LLOQ. GraphPad® Prism v.5.04 was used for nonlinear fitting of data to generate t1/2 values.

For `COc1ccc(/C=C2\N=C(C)N(c3ccc(CC(=O)NCc4ccccc4)cc3)C2=O)cc1` [Compound 4c, (Z)-N-Benzyl-2-(4-(4-(4-methoxybenzylidene)-2-methyl-5-oxo-4,5-dihydro-1H-imidazol-1-yl)phenyl)acetamide], the “Reactivity with GSH” value ([1]; pH 7.5, up to 48 h, LC/MS, listed as KIM-161) was “did not show any significant reaction with GSH; also recorded: could not react with GSH; also recorded: No reaction”, the “unreacted compound (UV spectrum)” value ([1]; after 48 h with GSH) was greater than 98% and the “Casp3 active %P” value (HL60 cells) was 49.94%. The “increase in the cells undergoing apoptosis (active caspase-3) vs untreated” value (HL60 cells) was roughly 10 fold, the fraction unbound at 22 h, 10 µM [2] was 0.05 and the “Stability in mouse plasma at 37°C” value [3] was greater than 300 min.

— publication PMC8766756, “Insights on Cancer Cell Inhibition, Subcellular Activities, and Kinase Profile of Phenylacetamides Pending 1H-Imidazol-5-One Variants” (Frontiers in Pharmacology, 2022)
